From PubChem BioAssay AID328 (DTP/NCI, 2004)
Values joined by “and” are separate entries in the source; they are usually repeats but may differ in a detail not shown here. Equal values may be shown once. Toxic doses and inconclusive results are not listed. Rule for the calls: active = survival T/C of 150% or more; inactive = T/C below 125% in these data.

Test system: BDF1 mice, P388 leukemia ip, median survival T/C
Experiment: NCI In Vivo Anticancer Drug Screen. Data for tumor model P388 Leukemia (intraperitoneal) in B6D2F1 (BDF1) mice
Settings: endpoint: median survival time, higher = longer survival
How it was run: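 Each value expresses how treatment altered survival: treated-mouse outcome over vehicle-mouse outcome, both groups bearing the transplanted tumour.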

[1] = dose: 100.0 mg/kg/injection, schedule: Q01DX009 (ip), vehicle: Klucel (hydroxypropylcellulose) (HPC)
[2] = dose: 100.0 mg/kg/injection, schedule: Q04DX003 (ip), vehicle: Klucel (hydroxypropylcellulose) (HPC)
[3] = dose: 200.0 mg/kg/injection, schedule: Q01DX009 (ip), vehicle: Klucel (hydroxypropylcellulose) (HPC)
[4] = dose: 200.0 mg/kg/injection, schedule: Q04DX003 (ip), vehicle: Klucel (hydroxypropylcellulose) (HPC)
[5] = dose: 400.0 mg/kg/injection, schedule: Q01DX009 (ip), vehicle: Klucel (hydroxypropylcellulose) (HPC)
[6] = dose: 400.0 mg/kg/injection, schedule: Q04DX003 (ip), vehicle: Klucel (hydroxypropylcellulose) (HPC)
[7] = dose: 100.0 mg/kg/injection, schedule: Q04DX003 (ip), vehicle: saline
[8] = dose: 200.0 mg/kg/injection, schedule: Q04DX003 (ip), vehicle: saline
[9] = dose: 400.0 mg/kg/injection, schedule: Q04DX003 (ip), vehicle: saline
[10] = dose: 50.0 mg/kg/injection, schedule: Q01DX009 (ip), vehicle: saline with Tween-80
[11] = dose: 100.0 mg/kg/injection, schedule: Q01DX009 (ip), vehicle: other
[12] = dose: 200.0 mg/kg/injection, schedule: Q01DX009 (ip), vehicle: other
[13] = dose: 100.0 mg/kg/injection, schedule: Q04DX003 (ip), vehicle: saline with Tween-80
[14] = dose: 200.0 mg/kg/injection, schedule: Q04DX003 (ip), vehicle: saline with Tween-80
[15] = dose: 400.0 mg/kg/injection, schedule: Q04DX003 (ip), vehicle: saline with Tween-80
[16] = dose: 100.0 mg/kg/injection, schedule: Q01DX009 (ip), vehicle: saline with Tween-80
[17] = dose: 200.0 mg/kg/injection, schedule: Q01DX009 (ip), vehicle: saline with Tween-80
[18] = dose: 400.0 mg/kg/injection, schedule: Q01DX009 (ip), vehicle: saline with Tween-80
[19] = dose: 25.0 mg/kg/injection, schedule: Q01DX009 (ip), vehicle: saline
[20] = dose: 50.0 mg/kg/injection, schedule: Q04DX003 (ip), vehicle: saline
[21] = dose: 12.5 mg/kg/injection, schedule: Q01DX009 (ip), vehicle: saline with Tween-80
[22] = dose: 25.0 mg/kg/injection, schedule: Q01DX009 (ip), vehicle: saline with Tween-80

Measured: T/C

c1ccc2c(c1)NC1(CCCCC1)S2
inactive: [1] 104 % of control | [2] 95 % of control | [3] 104 % of control | [4] 105 % of control | [5] 109 % of control | [6] 105 % of control

CN(C)C(=S)N(C)C
inactive: [7] 100 % of control | [8] 100 % of control | [9] 118 % of control

Cc1ccc(N=NN(C)C)cc1
inactive: dose: 33.0 mg/kg/injection, schedule: Q01DX009 (ip), vehicle: saline with Tween-80 104 % of control | [10] 108 % of control

O=S(/C=C/c1ccccc1)c1ccccc1 (configuration not stated)
inactive: dose: 50.0 mg/kg/injection, schedule: Q01DX009 (ip), vehicle: other 104 % of control | [11] 100 % of control | [12] 104 % of control

O=C(OCCCl)c1ccc(Cl)cc1
inactive: dose: 50.0 mg/kg/injection, schedule: Q04DX003 (ip), vehicle: saline with Tween-80 108 % of control | [13] 100 % of control | [14] 94 % of control | [15] 94 % of control

Cc1ccc(NC(=O)COc2cc(Cl)c(Cl)cc2Cl)cc1C
inactive: [13] 90 % of control | [14] 90 % of control | [15] 86 % of control

CCN(CC)C(=O)Cn1cc(F)c(NC(C)=O)nc1=O
inactive: [16] 90 % of control | [7] 95 % of control | [17] 105 % of control | [8] 109 % of control | [18] 110 % of control | [9] 113 % of control

c1c2c(cc3c1OC1=C(CCCCCCCCCC1)C3)OC1=C(CCCCCCCCCC1)C2
inactive: [10] 102 % of control | [16] 100 % of control | [17] 86 % of control

CC1=C2C(=C(CBr)OS1(=O)=O)C(=O)c1ccccc12
inactive: [13] 104 % of control | [14] 104 % of control | [15] 104 % of control

Cc1ccc(S(=O)(=O)O)cc1
inactive: [19] 91 % of control | dose: 50.0 mg/kg/injection, schedule: Q01DX009 (ip), vehicle: saline 91 % of control | [20] 100 % of control | dose: 100.0 mg/kg/injection, schedule: Q01DX009 (ip), vehicle: saline 108 % of control | [7] 95 % of control

COc1ccc(C2C=C(C)Oc3c2c(=O)oc2ccccc32)cc1OC (configuration not stated)
inactive: dose: 6.25 mg/kg/injection, schedule: Q04DX003 (ip), vehicle: water 98 % of control | dose: 12.5 mg/kg/injection, schedule: Q01DX009 (ip), vehicle: water 91 % of control | dose: 12.5 mg/kg/injection, schedule: Q04DX003 (ip), vehicle: water 104 % of control | dose: 25.0 mg/kg/injection, schedule: Q04DX003 (ip), vehicle: water 100 % of control | dose: 50.0 mg/kg/injection, schedule: Q04DX003 (ip), vehicle: water 100 % of control | dose: 100.0 mg/kg/injection, schedule: Q04DX003 (ip), vehicle: water 88 % of control and 96 % of control | dose: 200.0 mg/kg/injection, schedule: Q04DX003 (ip), vehicle: water 94 % of control | dose: 400.0 mg/kg/injection, schedule: Q04DX003 (ip), vehicle: water 90 % of control

CCCCNC(=O)Nc1ccc(N(C)C)cc1
inactive: [13] 90 % of control | [14] 90 % of control | [15] 100 % of control

CC1(C)OC1[Si](C)(C)C (configuration not stated)
inactive: [10] 107 % of control | [16] 121 % of control | [17] 111 % of control

CCCCC(CC)COC(OCC(CC)CCCC)C(OCC(CC)CCCC)OCC(CC)CCCC (configuration not stated)
inactive: [16] 100 % of control | [17] 100 % of control | [18] 90 % of control

CNC(=O)NNc1ccccc1
inactive: [4] 115 % of control | [6] 115 % of control

CCCCOP(=O)(CCCC)OCCCC
inactive: [21] 109 % of control | dose: 12.5 mg/kg/injection, schedule: Q04DX003 (ip), vehicle: saline 100 % of control | [22] 104 % of control | dose: 25.0 mg/kg/injection, schedule: Q04DX003 (ip), vehicle: saline 104 % of control | [10] 109 % of control | [20] 104 % of control

c1cc[c]([Sn]([c]2ccccc2)([c]2ccccc2)[c]2ccccc2)cc1
inactive: [16] 94 % of control | [17] 94 % of control | [18] 97 % of control

NC(CO)Cc1ccccc1 (configuration not stated)
inactive: dose: 12.5 mg/kg/injection, schedule: Q01DX009 (ip), vehicle: Klucel (hydroxypropylcellulose) (HPC) 106 % of control | dose: 25.0 mg/kg/injection, schedule: Q01DX009 (ip), vehicle: Klucel (hydroxypropylcellulose) (HPC) 91 % of control

CSc1ccc(NC(=O)CCl)cc1
inactive: [21] 107 % of control | [22] 105 % of control | [10] 106 % of control

Cc1cc(-c2ccccc2)nnc1NCCN1CCOCC1
inactive: dose: 6.25 mg/kg/injection, schedule: Q01DX009 (ip), vehicle: saline 106 % of control | dose: 12.5 mg/kg/injection, schedule: Q01DX009 (ip), vehicle: saline 90 % of control | [19] 88 % of control

Cc1ccc(S(=O)(=O)N(CCO)CC(C)O)cc1 (configuration not stated)
inactive: [1] 100 % of control | [3] 100 % of control | [5] 100 % of control

COc1cc(C=Nc2cccc(C(F)(F)F)c2)ccc1O
inactive: [2] 95 % of control | [4] 100 % of control

S=C1SCN(CCc2ccccc2)CN1CCc1ccccc1
inactive: dose: 6.25 mg/kg/injection, schedule: Q01DX009 (ip), vehicle: saline with Tween-80 111 % of control | [21] 102 % of control | [22] 104 % of control | [10] 100 % of control

O=S(=O)(O)c1ccc(Nc2ccccc2)cc1
inactive: [1] 100 % of control | [5] 104 % of control

CCCCCCCCC(=O)c1c(OC)oc(/C=N/O)cc1=O
inactive: dose: 1.56 mg/kg/injection, schedule: Q01DX009 (ip), vehicle: Klucel (hydroxypropylcellulose) (HPC) 94 % of control | dose: 3.13 mg/kg/injection, schedule: Q01DX009 (ip), vehicle: Klucel (hydroxypropylcellulose) (HPC) 107 % of control | dose: 6.25 mg/kg/injection, schedule: Q01DX009 (ip), vehicle: Klucel (hydroxypropylcellulose) (HPC) 97 % of control

CNc1ccc(OC)cc1
inactive: [11] 100 % of control | [12] 104 % of control | dose: 400.0 mg/kg/injection, schedule: Q01DX009 (ip), vehicle: other 104 % of control

C=C1CC2(CCC(C(C)(C)C)CC2)OC1=O (configuration not stated)
inactive: dose: 100.0 mg/kg/injection, schedule: Q04DX002 (ip), vehicle: saline with Tween-80 105 % of control | dose: 200.0 mg/kg/injection, schedule: Q04DX002 (ip), vehicle: saline with Tween-80 108 % of control | dose: 400.0 mg/kg/injection, schedule: Q04DX002 (ip), vehicle: saline with Tween-80 97 % of control

CCCCCCCCCCCCCCCCCC[n+]1cccc(C(=O)N2CCOCC2)c1
inactive: dose: 1.0 mg/kg/injection, schedule: Q01DX009 (ip), vehicle: saline with Tween-80 108 % of control | dose: 2.0 mg/kg/injection, schedule: Q01DX009 (ip), vehicle: Klucel (hydroxypropylcellulose) (HPC) 100 % of control | dose: 2.0 mg/kg/injection, schedule: Q01DX009 (ip), vehicle: saline with Tween-80 95 % of control | dose: 4.0 mg/kg/injection, schedule: Q01DX009 (ip), vehicle: Klucel (hydroxypropylcellulose) (HPC) 90 % of control | dose: 4.0 mg/kg/injection, schedule: Q01DX009 (ip), vehicle: saline with Tween-80 100 % of control | dose: 8.0 mg/kg/injection, schedule: Q01DX009 (ip), vehicle: Klucel (hydroxypropylcellulose) (HPC) 109 % of control | dose: 8.0 mg/kg/injection, schedule: Q01DX009 (ip), vehicle: saline with Tween-80 108 % of control | dose: 16.0 mg/kg/injection, schedule: Q01DX009 (ip), vehicle: Klucel (hydroxypropylcellulose) (HPC) 104 % of control | dose: 16.0 mg/kg/injection, schedule: Q01DX009 (ip), vehicle: saline with Tween-80 121 % of control | dose: 25.0 mg/kg/injection, schedule: Q04DX003 (ip), vehicle: Klucel (hydroxypropylcellulose) (HPC) 100 % of control | dose: 32.0 mg/kg/injection, schedule: Q01DX009 (ip), vehicle: Klucel (hydroxypropylcellulose) (HPC) 113 % of control | dose: 50.0 mg/kg/injection, schedule: Q04DX003 (ip), vehicle: Klucel (hydroxypropylcellulose) (HPC) 109 % of control | [2] 90 % of control
